# Patent US20050148495A1, “Methods and materials including for treating acne” (priority 2003, published 2005)
# Like-named read-outs stand apart in the source and are kept apart here. Non-standard residues stand in square brackets, D forms with d. Residues, ends and D or L forms follow the SMILES beside them. d1Nal = N[C@H](Cc1cccc2ccccc12)C(=O)O
# What was measured:
# [1] = Stability in aqueous solution as indicated by biological activity; assay type: physicochemical; conditions: 4° C.
# Description: (§1) In additional studies, a variety of formulations of XMP.629 were tested for stability under various temperatures, such as 25° C., 40° C., and 50° C., and at various time points, such as 0.5, 1, and 2 months.
# protease = experiment: Resistance to protease degradation
# Description: as §1
# [2] = test system: polychromatic erythrocyte (PCE) cells in mouse bone marrow; experiment: Mouse bone marrow micronucleus assay; assay type: in vivo, Crl:CD-1(ICR) BR mouse
# Description: XMP.629 was next evaluated for in vivo clastogenic activity and/or disruption of mitotic apparatus by detecting micronuclei in polychromatic erythrocyte (PCE) cells in Crl:CD-1®(ICR) BR mouse bone marrow. The assay design was based on OECD Guideline 474, updated and adopted Jul. 21, 1997. In this micronucleus assay, XMP.629 was formulated in 10 mM sodium acetate buffer (pH 6.0) and dosed by intraperitoneal injection to six males per dose level at each scheduled harvest timepoint. The dose levels were 2, 4, or 8 mg/kg. Five animals dosed with XMP.629 at 2 or 4 mg/kg and five animals dosed with a positive control were euthanized approximately 24 hours after dosing for extraction of the bone marrow. Five animals per harvest timepoint dosed with XMP.629 at 8 mg/kg and five animals per harvest timepoint dosed with the vehicle control article were euthanized approximately 24 or 48 hours after dosing for extraction of the bone marrow. This micronucleus test can serve as a rapid screen for compounds which interfere with normal mitotic cell division (Schmid, 1975, Mutat. Res. 31: 9-15; Heddle et al., 1983, Mutat. Res. 123: 61-118; Heddle et al., 1991, Env. And Mol. Mutagen. 18: 277-291). At least 2000 PCEs per animal were analyzed for the frequency of micronuclei. Cytotoxicity was assessed by scoring the number of PCEs and normochromatic erythrocytes (NCEs) in at least the first 500 erythrocytes for each avenal. […] Therefore, XMP.629 was determined to be negative in the mouse bone marrow micronucleus assay.
# Hanford minipigs = experiment: Minipig subchronic dermal toxicity test with toxicokinetics; assay type: in vivo; conditions: one 70 μg/kg/day female
# Description: XMP.629 was evaluated for potential toxicity when administered by a single daily dermal application to Hanford minipigs over the course of one month. The study group design and dosage levels tested were as follows:
# The test article or placebo control was administered once daily to the dorsal surface of each animal for 29 consecutive days. General health, mortality and moribundity checks were conducted twice daily. General health examinations were performed by a veterinarian once prior to in-life initiation and weekly during the study. The animals were examined daily for overt toxic signs (post-dose observations) between one and two hours following dosing. Detailed clinical observations and individual body weights were performed weekly, beginning on study day 0, and on the day of scheduled euthanasia. Dermal scoring was performed once per week and on the day of scheduled euthanasia.
# Hematology, coagulation and clinical chemistry parameters were evaluated once prior to in-life initiation (day -9) and near the conclusion of the dosing phase (day 26). Blood samples were also collected for anti-test article analyses on study day 26 and toxicokinetic (TK) analyses on study days 0 and 27. Ophthalmological examinations were performed once prior to in-life initiation and just prior to the end of the dosing phase. […]
# [3] = test system: marginal ear vein of rabbits; experiment: Intravenous efficacy tests in rabbits (local vein findings); assay type: in vivo, rabbit; conditions: multiple infusions, 1-20 mg/kg/day
# Description: A series of efficacy studies with XMP.629 was conducted where slow IV push or short term (5 to 30 min) intravenous infusions were given through the marginal ear vein at 0.1 to 1.0 mg/mL to rabbits, some of whom were previously infected with Staphylococcus aureus, E. coli, or other bacteria, or Candida albicans. […] Due to the swelling, the veins could not be infused after two to five administrations of 1-20 mg/kg/day of XMP.629. […] Secondary changes in the surrounding tissue included edema, regional fibroplasia, acute hemorrhage, and regional hemorrhagic necrosis, as well as the presence of inflammation. These macroscopic changes were similar to the changes observed in the tail veins of rats and mice in other efficacy studies conducted.
# [4] = test system: Enterococcus faccium (VRE); conditions: Enterococcus faccium 700221 (VRE)
# E. coli = conditions: for MBC: agent alone
# [5] = test system: P. acnes strain (ATCC 6919); conditions: ATCC 6919
# [6] = 0.1, 0.5, or 1% gel on 15% BSA; limit of quantification 1 ng/mL
# Description: XMP.629 acetate gel (0.1, 0.5, or 1% XMP.629 acetate per gram gel) was applied to the skin of mini-pigs. The dose of gel in each group was calculated as that amount which would cover 15% of the body surface area (BSA) at a rate of 2 mg of gel per cm2 of BSA. The application area was washed 24 hours following XMP.629 acetate gel application. Blood samples were collected at selected times up to 168 hours after dosing, plasma was extracted, and assayed for XMP.629 using an LC/MS/MS assay (limit of quantification=1 ng/mL).
# physchem = conditions: aqueous solution
# Description: as §1
# The solubility of XMP.629 acetate in various solvents was also evaluated.
# Solubility studies were conducted using a variety of solvent systems and/or skin penetration enhancers.
smiles,measurement,setting,value
"CC(C)C[C@@H](NC(=O)[C@H](N)CCCCN)C(=O)N[C@H](Cc1ccccc1)C(=O)N[C@H](CCCNC(=N)N)C(=O)N[C@H](Cc1cccc2ccccc12)C(=O)N[C@H](CCC(N)=O)C(=O)N[C@H](C)C(=O)N[C@H](CCCCN)C(=O)N[C@H](Cc1cccc2ccccc12)C(N)=O [XMP.629, NH2-lys-leu-phe-arg-(3-(1-naphthyl)-ala)-gln-ala-lys-(3-(1-naphthyl)-ala)-CONH2] (H-[dK][dL][dF][dR][d1Nal][dQ][dA][dK][d1Nal]-NH2)",stable in aqueous solution as indicated by biological activity,[1],greater than 6 months
same,protease degradation,protease,substantially resistant to protease degradation
same,mouse bone marrow micronucleus assay result,"[2]; 2, 4, or 8 mg/kg intraperitoneal",negative
same,cytotoxicity to the bone marrow (PCE:NCE ratios),[2]; any dose level tested,not cytotoxic to the bone marrow
same,signs of clinical toxicity,[2]; up to 8 mg/kg,did not induce any signs of clinical toxicity
same,Dermal observations,Hanford minipigs,single incidence of grade 2 (well defined) erythema
same,gross macroscopic changes at the infused vein,[3],swelling and hemorrhage into the perivascular space
same,Minimum Inhibitory Concentrations,[4],2.00 µg/mL
same,MBC,E. coli; E. coli 706U2-1081,16 µg/mL
same,XMP.629 MBC,"E. coli; E. coli 4104 LF, XMP.629 alone",16 µg/mL
same,MBC,E. coli; E. coli 4104 LF,8 µg/mL
same,MIC/MBC,[5],>4 µg/mL
same,plasma concentrations after topical administration,[6],no measurable plasma concentrations
same,solubility,physchem,≥ 20 mg/mL
